{"source": "patent US12649750B2", "about": "“Macrocyclic compounds, compositions, and methods of using thereof” (Sionna Therapeutics Inc., priority 2022, dated 2026)"}
{"target": "T1, NBD1 (Homo sapiens, UniProt P13569)", "T1 construct": "Purified recombinant NBD1 was produced using previously described methods; made in house", "T1 sequence (P13569 423-646 limits assumed)": "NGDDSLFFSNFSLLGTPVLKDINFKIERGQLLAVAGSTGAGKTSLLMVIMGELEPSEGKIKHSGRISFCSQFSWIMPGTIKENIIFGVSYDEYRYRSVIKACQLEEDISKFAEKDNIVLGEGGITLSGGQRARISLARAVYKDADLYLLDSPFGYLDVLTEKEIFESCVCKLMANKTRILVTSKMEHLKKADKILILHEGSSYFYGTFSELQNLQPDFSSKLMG", "assay": "Aggregation analysis using differential static light scattering (DSLS), thermal stability of NBD1 (ΔTagg)", "assay_type": "binding", "details": "ΔTagg versus DMSO control, NBD1 0.2 mg/ml", "procedure": "Example 386. Aggregation Analysis Using Differential Static Light Scattering (DSLS)\nPurified recombinant NBD1 was produced using previously described methods (A. Schmidt, J. L. Mendoza, P. J. Thomas (2011) Biochemical and Biophysical Approaches to Probe CFTR Structure (365-376) M. D. Amaral, K. Kunzelmann (eds.), Cystic Fibrosis, Methods in Molecular Biology 741, Springer Science+Business Media). The effect of test compounds on thermal stability of NBD1 was evaluated by differential static light scattering (DSLS) using the Harbinger Stargazer-384 instrument (Epiphyte Three, Toronto, Canada). Test compounds were dissolved and diluted to desired concentrations in 100% DMSO. The compounds or DMSO controls (100 nL) were stamped into wells of a […] low volume optical plate (Corning Inc., Corning, NY) using the Echo 555 acoustic liquid handler (Labcyte Inc., San Jose, CA).\nNBD1 protein was diluted to 0.2 mg/ml in S200 buffer (50 mM Tris-HCl, 150 mM NaCl, 5 mM MgCl2, 2 mM ATP, 2 mM DTT, pH7.6) containing 1% glycerol. 10 uL of protein solution was aliquoted into the 384-well plate harboring the test compounds and 10 uL mineral oil was overlaid onto the protein solution, using the epMotion robotic liquid handler (Eppendorf North America, Hauppauge, NY). After placing into the Stargazer instrument, the plate was heated at 1° C. per minute to 70° C. Images were captured from 25° C. to 70° C. every 0.5° C. At the end of the experiment run, instrument software integrated image files and analyzed data automatically. A […] regression curve was generated for each well, representing the increase in light scattering over time. A temperature of aggregation (Tagg) was calculated based on the inflection point of the curve. To better compare data across experiments the average Tagg for DMSO control wells was calculated and subtracted from values for wells containing compounds to obtain a “ΔTagg” value. These ΔTagg values reflect stabilizing efficacy of the compounds. As set forth in Table 2 below, an ΔTagg value less than or equal to 5° C. is marked “A”; a value above 5° C. and less than or equal to 10° C. is marked “B”; a value greater than 10° C. and less than or equal to 25° C. is marked “C”."}
{"compound": "COCC(Cc1cccc([C@@]2(C)CCCC(C)(C)CS(=O)(=O)CCc3c(c(F)c(F)c4[nH]ccc34)[S+]([O-])c3ccnc(c3)-c3nc2nn3C)c1)C(=O)O", "note": "(single isomer, unassigned) [Compound 375]", "DSLS 3D (100 μM ΔT)": "B (a value above 5 °C and less than or equal to 10 °C is marked “B”)"}
{"compound": "C[C@H](Cc1cccc([C@@]2(C)CCCC(C)(C)CS(=O)(=O)CCc3c(c(F)cc4[nH]ccc34)[S+]([O-])c3cc(c(F)cc3N)-c3nc2nn3C)c1)C(=O)O", "note": "(single isomer, unassigned) [Compound 379A]", "DSLS 3D (100 μM ΔT)": "A (an ΔTagg value less than or equal to 5 °C is marked “A”)"}
{"compound": "C[C@H](Cc1cccc([C@@]2(C)CCCC(C)(C)CS(=O)(=O)CCc3c(c(F)cc4[nH]ccc34)[S+]([O-])c3cc(c(F)cc3N)-c3nc2nn3C)c1)C(=O)O", "note": "(single isomer, unassigned) [Compound 379B]", "DSLS 3D (100 μM ΔT)": "A (an ΔTagg value less than or equal to 5 °C is marked “A”)"}
{"compound": "C[C@H](Cc1cccc(C2NCCOCCS(=O)(=O)Cc3c(c(F)c(F)c4[nH]ccc34)Oc3ccc(F)c(c3)-c3nc2nn3C)c1)C(=O)O", "note": "(single isomer, unassigned) [Compound 381A]", "DSLS 3D (100 μM ΔT)": "A (an ΔTagg value less than or equal to 5 °C is marked “A”)"}
{"compound": "C[C@H](Cc1cccc(C2NCCOCCS(=O)(=O)Cc3c(c(F)c(F)c4[nH]ccc34)Oc3ccc(F)c(c3)-c3nc2nn3C)c1)C(=O)O", "note": "(single isomer, unassigned) [Compound 381B]", "DSLS 3D (100 μM ΔT)": "A (an ΔTagg value less than or equal to 5 °C is marked “A”)"}
{"compound": "C[C@H](Cc1cccc([C@@]2(C)CCCC(C)(C)CS(=O)(=O)CC(N)c3c(c(F)c(F)c4[nH]ccc34)Oc3ccc(F)c(c3)-c3nc2nn3C)c1)C(N)=O", "note": "(single isomer, unassigned) [Compound 385A]", "DSLS 3D (100 μM ΔT)": "B (a value above 5 °C and less than or equal to 10 °C is marked “B”)"}
{"compound": "C[C@H](Cc1cccc([C@@]2(C)CCCC(C)(C)CS(=O)(=O)CC(N)c3c(c(F)c(F)c4[nH]ccc34)Oc3ccc(F)c(c3)-c3nc2nn3C)c1)C(N)=O", "note": "(single isomer, unassigned) [Compound 385B]", "DSLS 3D (100 μM ΔT)": "A (an ΔTagg value less than or equal to 5 °C is marked “A”)"}
{"compound": "O=C(O)CCc1cccc(C2CCCCCCS(=O)(=O)CCc3c(c(F)cc4[nH]ccc34)Oc3ccc(F)c(c3)-c3ncc2[nH]3)c1", "note": "(stereo not shown) [Compound 35, 3-[3-(23,29-Difluoro-13,13-dioxo-25-oxa-13λ6-thia-3,20,31-triazapentacyclo[24.3.1.12,5.016,24.017,21]hentriaconta-1(30),2,4,16,18,21,23,26,28-nonaen-6-yl)phenyl]propanoic Acid]", "DSLS 3D (100 μM ΔT)": "C (a value greater than 10 °C and less than or equal to 25 °C is marked “C”)"}
{"compound": "O=C(O)CCc1cccc(C2CCCCCS(=O)(=O)CCc3c(c(F)cc4[nH]ccc34)Oc3ccc(F)c(c3)-c3ncc2[nH]3)c1", "note": "(stereo not shown) [Compound 36, 3-[3-(22,28-Difluoro-12,12-dioxo-24-oxa-12λ6-thia-3,19,30-triazapentacyclo[23.3.1.12,5.015,23.016,20]triaconta-1(29),2,4,15,17,20,22,25,27-nonaen-6-yl)phenyl]propanoic Acid]", "DSLS 3D (100 μM ΔT)": "C (a value greater than 10 °C and less than or equal to 25 °C is marked “C”)"}
{"compound": "CN1CCS(=O)(=O)CCC(C)(c2cccc(CCC(=O)O)c2)c2cnc([nH]2)-c2cc(ccc2F)Oc2c(F)cc3[nH]ccc3c2CC1=O", "note": "(stereo not shown) [Compound 38, 3-[3-(22,28-Difluoro-6,12-dimethyl-9,9,13-trioxo-24-oxa-9λ6-thia-3,12,19,30-tetrazapentacyclo[23.3.1.12,5.015,23.016,20]triaconta-1(29),2,4,15,17,20,22,25,27-nonaen-6-yl)phenyl]propanoic Acid]", "DSLS 3D (100 μM ΔT)": "C (a value greater than 10 °C and less than or equal to 25 °C is marked “C”)"}
{"compound": "CN1CCS(=O)(=O)CCC(C)(c2cccc(CCC(=O)O)c2)c2cnc([nH]2)-c2cc(ccc2F)Oc2c(F)cc3[nH]ccc3c2CCC1=O", "note": "(stereo not shown) [Compound 39, 3-[3-(23,29-Difluoro-6,12-dimethyl-9,9,13-trioxo-25-oxa-9λ6-thia-3,12,20,31-tetrazapentacyclo[24.3.1.12,5.016,24.017,21]hentriaconta-1(30),2,4,16,18,21,23,26,28-nonaen-6-yl)phenyl]propanoic Acid]", "DSLS 3D (100 μM ΔT)": "B (a value above 5 °C and less than or equal to 10 °C is marked “B”)"}
{"compound": "CC1(C)CCCC(C)(c2cccc(CCC(=O)O)c2)c2csc(n2)-c2cc(ccc2F)Oc2c(F)cc3[nH]ccc3c2CCS(=O)(=O)C1", "note": "(stereo not shown) [Compound 49, 3-[3-(22,28-Difluoro-6,10,10-trimethyl-12,12-dioxo-24-oxa-3,12lambda6-dithia-19,30-diazapentacyclo[23.3.1.12,5.015,23.016,20]triaconta-1(29),2(30),4,15,17,20,22,25,27-nonaen-6-yl)phenyl]propanoic acid]", "DSLS 3D (100 μM ΔT)": "C (a value greater than 10 °C and less than or equal to 25 °C is marked “C”)"}
{"compound": "CCOC(=O)[C@@H](C)Cc1cccc(C2CCCC(C)(C)CS(=O)(=O)CCc3c(c(F)cc4[nH]ccc34)C(=O)c3cccc(c3)-c3ccn2n3)c1", "note": "(stereo partly drawn) [Compound 161, Ethyl (2S)-3-[3-(22-fluoro-10,10-dimethyl-12,12,24-trioxo-12λ6-thia-5,19,30-triazapentacyclo[23.3.1.12,5.015,23.016,20]triaconta-1(29),2(30),3,15,17,20,22,25,27-nonaen-6-yl)phenyl]-2-methyl-propanoate]", "DSLS 3D (100 μM ΔT)": "A (an ΔTagg value less than or equal to 5 °C is marked “A”)"}
{"compound": "C[C@H](Cc1cccc([C@@]2(C)CCCC(C)(C)CS(=O)(=O)CCc3c(c(F)c(F)c4[nH]ccc34)S(=O)(=O)c3ccnc(c3)-c3nc2nn3C)c1)C(=O)O", "note": "[Compound 301, (2R)-3-[3-[(6R)-21,22-difluoro-3,6,10,10-tetramethyl-12,12,24,24-tetraoxo-12λ6,24λ6-dithia-3,4,19,28,30-pentazapentacyclo[23.3.1.12,5.015,23.016,20]triaconta-1(29),2(30),4,15,17,20,22,25,27-nonaen-6-yl]phenyl]-2-methyl-propanoic Acid]", "DSLS 3D (100 μM ΔT)": "A (an ΔTagg value less than or equal to 5 °C is marked “A”)"}
{"compound": "Cn1nc2nc1-c1cc(ccc1F)Sc1c(F)cc3[nH]ccc3c1CCS(=O)(=O)CC(C)(C)CCC[C@]2(C)c1cccc([C@H](O)CO)c1", "note": "[Compound 302A, (1S)-1-[3-[(6R)-22,28-Difluoro-3,6,10,10-tetramethyl-12,12-dioxo-12λ6,24-dithia-3,4,19,30-tetrazapentacyclo[23.3.1.12,5.015,23.016,20]triaconta-1(29),2(30),4,15,17,20,22,25,27-nonaen-6-yl]phenyl]ethane-1,2-diol]", "DSLS 3D (100 μM ΔT)": "B (a value above 5 °C and less than or equal to 10 °C is marked “B”)"}
{"compound": "Cn1nc2nc1-c1cc(ccc1F)Sc1c(F)c(F)c3[nH]ccc3c1CCS(=O)(=O)CC(C)(C)CCC[C@]2(C)c1cccc(CC2(C(=O)O)CC2)c1", "note": "[Compound 303A, 1-[[3-[(6R)-21,22,28-Trifluoro-3,6,10,10-tetramethyl-12,12-dioxo-12λ6,24-dithia-3,4,19,30-tetrazapentacyclo[23.3.1.12,5.015,23.016,20]triaconta-1(29),2(30),4,15,17,20,22,25,27-nonaen-6-yl]phenyl]methyl]cyclopropanecarboxylic acid]", "DSLS 3D (100 μM ΔT)": "B (a value above 5 °C and less than or equal to 10 °C is marked “B”)"}
